Consider 27 compounds from patent US12398120B2, “Substituted hydantoinamides as ADAMTS7 antagonists” (BAYER AKTIENGESELLSCHAFT, priority 2019, dated 2025).

Some results are limits rather than exact numbers.

ADAMTS4, sequence (O75173 213-685): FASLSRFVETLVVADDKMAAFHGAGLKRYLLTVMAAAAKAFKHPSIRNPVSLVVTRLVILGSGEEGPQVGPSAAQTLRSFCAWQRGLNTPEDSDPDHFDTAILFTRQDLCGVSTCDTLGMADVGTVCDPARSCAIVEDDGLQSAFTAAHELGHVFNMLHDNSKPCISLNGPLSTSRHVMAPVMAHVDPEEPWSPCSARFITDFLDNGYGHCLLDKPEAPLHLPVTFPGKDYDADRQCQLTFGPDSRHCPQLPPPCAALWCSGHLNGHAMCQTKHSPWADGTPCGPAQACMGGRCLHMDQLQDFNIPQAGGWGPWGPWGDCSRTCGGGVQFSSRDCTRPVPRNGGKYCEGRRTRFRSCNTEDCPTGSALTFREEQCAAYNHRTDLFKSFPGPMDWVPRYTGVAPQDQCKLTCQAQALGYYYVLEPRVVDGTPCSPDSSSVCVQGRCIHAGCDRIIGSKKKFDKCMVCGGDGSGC

In the assay the target is ADAMTS4 (Homo sapiens (Human), UniProt O75173). As to the kind of experiment: Selectivity assay for ADAMTS-7 modulators: ADAMTS4 (FRET substrate). It is filed as biochemical. As to conditions: ADAMTS4 (R&D 4307-AD) 50 nM, substrate Dabcyl-EEVKAKVQPY-Glu(Edans)-NH2 1 μM, 120 min, 32° C. Here is the method:
1 μl test compound solution (dissolved in DMSO, at the corresponding concentration) or pure DMSO as a control was added per well. The enzymatic reaction was initiated by addition of 25 μl of the respective concentration of the respective FRET substrate (see table 2 below) in reaction buffer.
The increase of fluorescence intensity was measured in appropriate fluorescence plate reader (e.g. TECAN Ultra) using the respective wavelengths for excitation and emission. IC50 values were calculated from percentage of inhibition of enzyme activity as a function of test compound concentration.
As for `CC(C)(c1ccc(-c2ccccc2C(=O)NC[C@@]2(C3CC3)NC(=O)NC2=O)cc1)C(F)(F)F` [Example 120, N-{[(4R)-4-Cyclopropyl-2,5-Dioxoimidazolidin-4-Yl]Methyl}-4′-(1,1,1-Trifluoro-2-Methylpropan-2-Yl)[Biphenyl]-2-Carboxamide], half-maximal inhibition (IC50) was put at 35 µM.
The figure for `Cc1ccc(C(=O)NCC2(c3nccn3C)NC(=O)NC2=O)c(-c2ccc(C(F)(F)F)cc2)c1` (single isomer, unassigned; ent-5) [Example 151, Ent-5-Methyl-N-{[4-(1-Methyl-1H-Imidazol-2-Yl)-2,5-Dioxoimidazolidin-4-Yl]Methyl}-4′-(Trifluoromethyl)[Biphenyl]-2-Carboxamide] is 1.02 µM; for `CC(C)C1(CNC(=O)c2ccccc2-c2ccc(C(F)(F)F)cc2)NC(=O)NC1=O` (stereo not drawn) [Example 209, Ent-N-[(4-Isopropyl-2,5-Dioxoimidazolidin-4-Yl)Methyl]-4′-(Trifluoromethyl)[Biphenyl]-2-Carboxamide] it is 36.5 µM.
On to `Cc1ccc(-c2ccccc2C(=O)NCC2(c3nccs3)NC(=O)NC2=O)cc1` (racemic) [Example 200, Rac-N-{[2,5-Dioxo-4-(1,3-Thiazol-2-Yl)Imidazolidin-4-Yl]Methyl}-4′-Methyl[Biphenyl]-2-Carboxamide], for which the IC50 was 28 µM.
The figure for `CC(C)c1ccc(-c2ccccc2C(=O)NC[C@@]2(C3CC3)NC(=O)NC2=O)cc1` [Example 118, N-{[(4R)-4-Cyclopropyl-2,5-Dioxoimidazolidin-4-Yl]Methyl}-4′-Isopropyl[Biphenyl]-2-Carboxamide] is 7.6 µM; for `CC(F)(F)c1ccc(-c2ccccc2C(=O)NC[C@@]2(C3CC3)NC(=O)NC2=O)cc1` [Example 125, N-{[(4R)-4-Cyclopropyl-2,5-Dioxoimidazolidin-4-Yl]Methyl}-4′-(1,1-Difluoroethyl)[Biphenyl]-2-Carboxamide] it is 8.7 µM; for `Cc1ccc(C(=O)NCC2(c3nccn3C)NC(=O)NC2=O)c(-c2ccc(C3CC3(F)F)cc2)c1` (stereo not drawn) [Example 135, 4′-(2,2-Difluorocyclopropyl)-5-Methyl-N-{[4-(1-Methyl-1H-Imidazol-2-Yl)-2,5-Dioxoimidazolidin-4-Yl]Methyl}[1,1′-Biphenyl]-2-Carboxamide] it is 1.3 µM.
Then `O=C1NC(=O)C(CNC(=O)c2ccc(F)cc2-c2ccc(C(F)(F)F)cc2)(C23CC(F)(C2)C3)N1` (single isomer, unassigned; ent-5) [Example 294, Ent-5-Fluoro-N-{[4-(3-Fluorobicyclo[1.1.1]Pentan-1-Yl)-2,5-Dioxoimidazolidin-4-Yl]Methyl}-4′-(Trifluoromethyl)[Biphenyl]-2-Carboxamide], with 37 µM.
`O=C1NC(=O)C(CNC(=O)c2ccccc2-c2ccc(C(F)(F)F)cc2)(c2ccnn2C(F)F)N1` (stereo not drawn) [Example 261, Ent-N-({4-[1-(Difluoromethyl)-1H-Pyrazol-5-Yl]-2,5-Dioxoimidazolidin-4-Yl}Methyl)-4′-(Trifluoromethyl)[Biphenyl]-2-Carboxamide] came in with an IC50 greater than 50 µM.
Then `Cc1nc(C)c(C2(CNC(=O)c3ccccc3-c3ccc(C(F)(F)F)nc3)NC(=O)NC2=O)s1` (racemic) [Example 34, Rac-N-{[4-(2,4-Dimethyl-1,3-Thiazol-5-Yl)-2,5-Dioxoimidazolidin-4-Yl]Methyl}-2-[6-(Trifluoromethyl)Pyridin-3-Yl]Benzamide], with 8.9 µM.
The figure for `Cn1nccc1C1(CNC(=O)c2cc(F)ccc2-c2ccc(C(F)(F)F)cc2)NC(=O)NC1=O` (racemic) [Example 177, Rac-4-Fluoro-N-{[4-(1-Methyl-1H-Pyrazol-5-Yl)-2,5-Dioxoimidazolidin-4-Yl]Methyl}-4′-(Trifluoromethyl)[Biphenyl]-2-Carboxamide] is 12 µM; for `O=C1NC(=O)C(CNC(=O)c2ccc(F)cc2-c2ccc(C(F)(F)F)cc2)(c2ccnn2C(F)F)N1` (stereo not drawn) [Example 296, Ent-N-({4-[1-(Difluoromethyl)-1H-Pyrazol-5-Yl]-2,5-Dioxoimidazolidin-4-Yl}Methyl)-5-Fluoro-4′-(Trifluoromethyl)[Biphenyl]-2-Carboxamide] it is 9.5 µM; for `Cc1scnc1C1(CNC(=O)c2cc(F)ccc2-c2ccc(Cl)cc2)NC(=O)NC1=O` (single isomer, unassigned; ent-4) [Example 174, Ent-4′-Chloro-4-Fluoro-N-{[4-(5-Methyl-1,3-Thiazol-4-Yl)-2,5-Dioxoimidazolidin-4-Yl]Methyl}[Biphenyl]-2-Carboxamide] it is 2.6 µM.
On to `Cc1ncsc1C1(CNC(=O)c2ccccc2-c2ccc(C(F)(F)F)nc2)NC(=O)NC1=O` (stereo not drawn) [Example 37, Ent-N-{[4-(4-Methyl-1,3-Thiazol-5-Yl)-2,5-Dioxoimidazolidin-4-Yl]Methyl}-2-[6-(Trifluoromethyl)Pyridin-3-Yl]Benzamide], for which the IC50 is 8.7 µM.
Consider `Cn1nccc1C1(CNC(=O)c2ccc(Cl)cc2-c2ccc(C(F)(F)F)cc2)NC(=O)NC1=O` (single isomer, unassigned; ent-5) [Example 188, Ent-5-Chloro-N-{[4-(1-Methyl-1H-Pyrazol-5-Yl)-2,5-Dioxoimidazolidin-4-Yl]Methyl}-4′-(Trifluoromethyl)[Biphenyl]-2-Carboxamide], for which the IC50 turned out to be 2.73 µM.
Then `O=C1NC(=O)C(CNC(=O)c2ccccc2-c2ccc(C(F)(F)F)cc2)(c2ccnn2C(F)F)N1` (racemic) [Example 260, Rac-N-({4-[1-(Difluoromethyl)-1H-Pyrazol-5-Yl]-2,5-Dioxoimidazolidin-4-Yl}Methyl)-4′-(Trifluoromethyl)[Biphenyl]-2-Carboxamide], with 17 µM; and `Cc1c(C2(CNC(=O)c3ccc(Cl)cc3-c3ccc(C(F)(F)F)cc3)NC(=O)NC2=O)cnn1C` (racemic) [Example 33, Rac-5-Chloro-N-{[4-(1,5-Dimethyl-1H-Pyrazol-4-Yl)-2,5-Dioxoimidazolidin-4-Yl]Methyl}-4′-(Trifluoromethyl)[Biphenyl]-2-Carboxamide], with 5.2 µM.
Then `Cn1nccc1C1(CNC(=O)c2cc(F)c(F)cc2-c2ccc(C(F)(F)F)cc2)NC(=O)NC1=O` (single isomer, unassigned; ent-4) [Example 192, Ent-4,5-Difluoro-N-{[4-(1-Methyl-1H-Pyrazol-5-Yl)-2,5-Dioxoimidazolidin-4-Yl]Methyl}-4′-(Trifluoromethyl)[Biphenyl]-2-Carboxamide], with 7.13 µM; and `Cn1nccc1C1(CNC(=O)c2cc(F)ccc2-c2ccc(C(F)(F)F)nc2)NC(=O)NC1=O` (single isomer, unassigned; ent-5) [Example 292, Ent-5-Fluoro-N-{[4-(1-Methyl-1H-Pyrazol-5-Yl)-2,5-Dioxoimidazolidin-4-Yl]Methyl}-2-[6-(Trifluoromethyl)Pyridin-3-Yl]Benzamide], with 9.5 µM.
Then `O=C1NC(=O)C(CNC(=O)c2cccc(F)c2-c2ccc(C(F)(F)F)cc2)(C2(F)CC2)N1` (racemic) [Example 299, Rac-6-Fluoro-N-{[4-(1-Fluorocyclopropyl)-2,5-Dioxoimidazolidin-4-Yl]Methyl}-4′-(Trifluoromethyl)[Biphenyl]-2-Carboxamide], with 19 µM.
Regarding `Cn1ccnc1C1(CNC(=O)c2c(F)cccc2-c2ccc(C(F)(F)F)cc2)NC(=O)NC1=O` (single isomer, unassigned; ent-3) [Example 159, Ent-3-Fluoro-N-{[4-(1-Methyl-1H-Imidazol-2-Yl)-2,5-Dioxoimidazolidin-4-Yl]Methyl}-4′-(Trifluoromethyl)[Biphenyl]-2-Carboxamide], the midpoint of inhibition, the IC50, lay at 3.75 µM. This IC50 lies about 5.1-fold lower than the previous one.
Then `O=C1NC(=O)C(CNC(=O)c2ccccc2-c2ccc(Cl)cc2)(C2(F)CC2)N1` (single isomer, unassigned; ent-4) [Example 251, Ent-4′-Chloro-N-{[4-(1-Fluorocyclopropyl)-2,5-Dioxoimidazolidin-4-Yl]Methyl}[Biphenyl]-2-Carboxamide], with 11 µM.
The figure for `Cc1ccc(C(=O)NCC2(c3ccnn3C)NC(=O)NC2=O)c(-c2ccc(C(F)(F)F)cc2)c1` (single isomer, unassigned; ent-5) [Example 308, Ent-5-Methyl-N-{[4-(1-Methyl-1H-Pyrazol-5-Yl)-2,5-Dioxoimidazolidin-4-Yl]Methyl}-4′-(Trifluoromethyl)[Biphenyl]-2-Carboxamide] is 4.2 µM.
The figure for `O=C1NC(=O)[C@](CNC(=O)c2ccccc2-c2ccc(C3(C(F)(F)F)CC3)cc2)(C2CC2)N1` [Example 115, N-{[(4R)-4-Cyclopropyl-2,5-Dioxoimidazolidin-4-Yl]Methyl}-4′-[1-(Trifluoromethyl)Cyclopropyl][Biphenyl]-2-Carboxamide] is 7.8 µM.
Turning to `Cc1scnc1C1(CNC(=O)c2cc(F)c(F)cc2-c2ccc(C(F)(F)F)cc2)NC(=O)NC1=O` (single isomer, unassigned; ent-4) [Example 17, Ent-4,5-Difluoro-N-{[4-(5-Methyl-1,3-Thiazol-4-Yl)-2,5-Dioxoimidazolidin-4-Yl]Methyl}-4′-(Trifluoromethyl)[Biphenyl]-2-Carboxamide], the midpoint of inhibition, the IC50, lay at 7.1 µM.
The figure for `O=C1NC(=O)C(CNC(=O)c2ccccc2-c2ccc(C(F)(F)F)cc2)(c2ncsc2C(F)(F)F)N1` (racemic) [Example 263, Rac-N-({2,5-Dioxo-4-[5-(Trifluoromethyl)-1,3-Thiazol-4-Yl]Imidazolidin-4-Yl}Methyl)-4′-(Trifluoromethyl)[Biphenyl]-2-Carboxamide] is 32 µM.
Then `O=C1NC(=O)[C@](CNC(=O)c2ccc(F)cc2-c2ccc(C(F)(F)F)cc2)(C2CC2)N1` [Example 116, N-{[(4R)-4-Cyclopropyl-2,5-Dioxoimidazolidin-4-Yl]Methyl}-5-Fluoro-4′-(Trifluoromethyl)[Biphenyl]-2-Carboxamide], with 12 µM.
